Laboratory results: US20200025762A1, “NON-TARGET SITE RESISTANCE” (UNIVERSITY OF NEWCASTLE UPON TYNE, priority 2017, published 2020)

What was measured:
[1] = tested on: Pendimethalin population (ROTH PEND 14) of black-grass; experiment: Cross resistance test of the Pendimethalin selected line; type: in vivo, Alopecurus myosuroides; conditions: full or ¾ field rate; FIG. 18; not due to TSR (PCR of ACCases)
Description: (§1) However, given that the two populations have no known relationship to the HS population, some of these differences could have arisen due to background genetic variation not linked to herbicide resistance. To test this, the inventors extended the proteomic comparison to two additional populations originating from the HS Rothamsted population that had undergone 5-7 years of experimentally controlled selection under a single herbicide regime, either Fenoxaprop or Pendimethalin (Supplementary Methods S1). These herbicides were used because whereas resistance to fenoxaprop can arise through both TSR- and NTSR-based mechanisms (Cocker et al., 1999), evolved tolerance to pendimethalin in black-grass is most commonly associated with enhanced detoxification (James et al., 1995). The inventors then tested these populations for cross-resistance to other herbicides at either full or ¾ field rate (Supplementary Methods S2). Despite being selected under exposure to a single herbicidal mode of action (inhibition of microtubule assembly), the Pendimethalin population was also resistant against several herbicides with ACCase mode of action (fenoxaprop, clodinafop, cycloxidim), but not ALS or cell division MOA (FIG. 18). PCR of the respective ACCases in the selected population (Marshall et al., 2013), confirmed that resistance was not due to TSR-related mechanisms.
A black-grass population originating from Rothamsted Broadbalk experimental grounds (guaranteed herbicide free) was used as the standard Herbicide Susceptible (HS) population, collected in 2009. This was used as a standard control for two “real” NTSR populations originating from wheat field sites in Essex (Peldon) and Oxford and two experimental NTSR populations that had undergone directed selection to two types of herbicidal active ingredients (Fenoxaprop and Pendimethalin). Both experimental populations originated from the Rothamsted HS population in 2004. Further details on the selection regime to create the distinct Fenoxaprop and Pendimethalin resistant populations are provided in Supplementary Methods S1/S2. […]

[2] = tested on: Fenoxaprop population (ROTH FEN OUT) of black-grass; experiment: Cross resistance test of the Fenoxaprop selected line; type: in vivo, Alopecurus myosuroides; conditions: full or ¾ field rate; FIG. 18; no evidence of TSR
Description: as §1, with “mechanisms. […]” for “mechanisms.”

Q: How did the “herbicide resistance of the Pendimethalin population” value [1] turn out when `C#CCOC(=O)[C@@H](C)Oc1ccc(Oc2ncc(Cl)cc2F)cc1` was run?
A: resistant

Q: How did the “herbicide resistance of the Pendimethalin population” value [1] turn out when `CCCC(=NOCC)C1=C(O)CC(C2CCCSC2)CC1=O` (stereo not shown) [cycloxidim] was run?
A: resistant

Q: With `CC(Oc1ccc(Oc2nc3ccc(Cl)cc3o2)cc1)C(=O)O` (stereo not shown) [fenoxaprop] as the compound, how does the “herbicide resistance of the Pendimethalin population” value [1] read?
A: resistant

Q: What about the “herbicide resistance of the population selected with fenoxaprop” value [2] of the same compound?
A: only resistant toward the selecting herbicide
